Measurements from patent US5874472A, “Aminoacid derivatives as no synthase inhibitors” (Glaxo Wellcome Inc., priority 1993, dated 1999).

What was measured:
[1] = phenylalanine-loaded rat; Chemical Abstracts vol. 89, 191755v; cited from earlier work
human brain NOS = molecular target: T1, human brain NOS (Homo sapiens, UniProt P29475); assay: Inhibition of human brain NOS (citrulline formation); format: biochemical; settings: Schmidt et al. 1991 procedure, 10 μM tetrahydrobiopterin included
T1 construct: Purification of NOS from human brain; from tissue; host or cells: frozen human brain; ammonium sulfate, 2',5' ADP-agarose, calmodulin-agarose
Experimental: Purification of NOS from human brain
Human brain NOS was prepared using variations of the procedures of Schmidt et al. (PNAS 88 365-369, 1991), Mayer et al. (Fed. Eur. Biochem. Soc. 288 187-191, 1991), and Bredt and Snyder, (PNAS 87 682-685, 1990). Briefly, frozen human brain (1050 gm) was homogenized in cold buffer A (50 mM HEPES, pH 7.5 (pH at RT) and 0.5 mM EDTA, 10 mM DTT, 3.6 L total volume) with a polytron. The mixture was centrifuged at 13,000 g for 1 hour and the supernatant was removed (about 2050 ml). To the supernatant, solid aimmonium sulfate (365 gm, about 30% of saturation) was added and stirred slowly for a total of 30 minutes. The precipitate was pelleted at 13,000 g for 30 minutes and the pellet was resuspended in ~400 mls of buffer A with 4 μM tetrahydrobiopterin, 1 μM FAD (Sigma), 1 μM FMN (Sigma). The solution was centrifuged at 41,000 g for 60 minutes. The supernatant was removed, frozen by pouring into liquid nitrogen, and stored overnight at -70° C. The mixture was thawed and passed through a 2',5' ADP-agarose column (0.4 g swelled in buffer A) at 4 ml/min. The column was washed with 100 ml buffer A, 200 ml buffer A with 500 mM NaCl, 100 ml Buffer A, then 30 ml buffer A with 5 mM NADPH. To the enzyme eluted from the column was added glycerol to 15%, CaCl2 to 1 mM, tetrahydrobiopterin to 10 μM, tween to 0.1% and FAD, FMN to 1 μM each. The enzyme was then passed through a 1 ml calmodulin-agarose column which had been equilibrated in Buffer A, 15% glycerol and 1 mM CaCl2. The column was washed with 15 ml Buffer A, 15% glycerol and 1 mM CaCl2, 15 ml of Buffer A, 15% glycerol and 5 mM EDTA, and then enzyme activity was eluted with 3 ml of Buffer A, 15% glycerol and 5 mM EDTA, 1 M NaCl. To the enzyme was added tetrahydrobiopterin to 10 μM, FAD and FMN to 1 μM, and tween to 0.1%. This solution was concentrated by centriprep-30 to a volume of approximately 500 μl. Human NOS was prepared completely analogously except the calmodulin-agarose column was not used. Enzyme activity was determined as described by Schmidt et al. 1991, except that 10 μM tetrahydrobiopterin was included in the assay.

human placental NOS = molecular target: T2, human placental NOS (Homo sapiens, UniProt P29474); assay: Inhibition of human placental NOS (citrulline formation); format: biochemical; settings: 1 μM L-[14C] arginine; pH 7.4; calmodulin, CaCl2
T2 construct: Purification of NOS from human placenta; from tissue; host or cells: fresh human placenta, amnion and chorion removed; ammonium sulfate and 2',5' ADP agarose purified
Experimental: It is noted that the NO synthase isolated from human placenta most probably represents the endothelial constitutive isoenzyme.
Purification of NOS from human placenta.
Amion and chorion were removed from fresh placenta, which was then rinsed with 0.9% NaCl. The tissue was homogenized in a Waring blender in 3 volumes of HEDS buffer (20 mM Hepes pH 7.8, 0.1 mM EDTA, 5 mM DTT, 0.2M sucrose) plus 0.1 mM PMSF.
The homogenate was filtered through cheesecloth and then centrifuged at 1000 g for 20 min. The supernatant was recentrifuged at 27500 g for 30 min. Solid ammonium sulfate was added to the supernatant to give 32% saturation. Precipitated protein was pelleted at 25,000 g and then redissolved in a minimal volume of HEDS buffer plus 0.1 mM PMSF, 10 μg/ml leupeptin and soybean trypsin inhibitor, and 1 μg/ml pepstatin. The redissolved pellet was centrigued at 15000 g for 10 min. To the supernatant was added 1/20 volume of 2',5' ADP agarose resin (Sigma), and the slurry was mixed slowly overnight. In morning, slurry was packed into a column. The resin was sequentially washed with HEDS, 0.5M NaCl in HEDS, HEDS, and then NOS was eluted with 10 mM NADPH in HEDS. The enzyme could be concentrated by ultrafiltration and quick frozen and stored at -70° C. without loss in activity for at least 6 months.
Assay for human placental NOS
(§1) NOS was assayed for the formation of citrulline following the procedure of Schmidt et al (PNAS 88 365-369, 1991) with these modifications: 20 mM Hepes, pH 7.4, 10 μg/ml calmodulin, 2.5 mM CaCl2 2.5 mM DTT, 125 μM NADPH 10 μM H4 Biopterin, 0.5 mg/ml BSA, and 1 μM L-[^14 C] arginine (New England Nuclear). Linearity of NOS-catalyzed rate was confirmed prior to kinetic studies that used single time point determination of rate.

inducible human NOS = molecular target: T3, inducible human NOS (Homo sapiens, UniProt P35228); assay: Inhibition of inducible human NOS (citrulline formation), enzyme from cytokine-induced DLD-1 cells; format: biochemical; settings: NOS from cytokine-induced DLD-1 cells; 1 μM L-[14C] arginine; pH 7.4; 10 μM FAD, no calmodulin/CaCl2
T3 construct: Purification of NOS cytokine-induced human colorectal adenocarcinoma DLD-1 cells; host or cells: DLD-1 cells induced with interferon-gamma, interleukin-6, tumor necrosis factor and interleukin-1beta; 2',5' ADP Sepharose purified
Experimental: as §1
Purification of NOS cytokine-induced human colorectal adenocarcinoma DLD-1 cells.
DLD-1 (ATCC No. CCL 221) were grown at 37° C., 5% CO2 in RPMI 1640 medium supplemented with L- glutamin, penicillin, streptomycin, and 10% heat-inactivated fetal bovine serum. Cells were grown to confluency and then the following cocktail of cytokines were added: 100 units/ml interferon-gamma, 200 units/ml interleukin-6, 10 ng/ml tumor necrosis factor, and 0.5 ng/ml interieukin-1β. At 10-24 hr post-induction, cells were harvested by scraping and washed with phosphate-buffered saline. Pelleted cells were stored at -70° C. Purification of the induced NOS was performed at 4° C. Crude extract was prepared by three cycles of freeze/thawing cells in TDGB (20 mM tris pH 7.5, 10% glycerol, 1 mM DTT, 2 μM tetrahydrobiopterin). Extract was applied directly onto a column of 2',5' ADP sepharse (Pharmacia). Resin was sequentially washed with TDGB, 0.5 M NaCl in TDGB, TDGB. NOS was eluted with 2 mM NADPH in TDGB. BSA was immediately added to give a final concentration of 1 mg/ml. NOS could be quick frozen and stored at -70° C. without loss in activity for at least 2 months.
Assay for inducible human NOs.
The formation of citrulline was assayed as described above except that 10 μM FAD was included and calmodulin and CaCl2 were excluded from the assay mix.

NO synthase = settings: background statement; cited from earlier work

Ki (human brain NOS) [µM]	Ki (human placental NOS) [µM]	Ki (inducible human NOS) [µM]	Molecule	other results
			N=C(N)Nc1ccc(C[C@H](N)C(=O)O)cc1 [4-guanidino phenylalanine]	renal excretion of cystine [1]: to some extent; renal excretion of lysine [1]: increased
			N=C(N)NCc1ccc(C[C@H](N)C(=O)O)cc1 [4-guanidinomethylphenylalanine]	renal excretion of cystine [1]: to some extent; renal excretion of lysine [1]: increased
> 50	> 50	> 50	NC(=S)Nc1ccc(C[C@H](N)C(=O)O)cc1 [Compound 28, 4-thioureido-L-phenylalanine]	
> 50	> 50	> 50	CSC(=N)Nc1ccc(C[C@H](N)C(=O)O)cc1 [Compound 29, 4-(S-methylisothioureido)-L-phenylalanine]	
≤ 0.5	≤ 0.5	≤ 10	CCSC(=N)Nc1ccc(C[C@H](N)C(=O)O)cc1 [Compound 30, 4-(S-ethylisothioureido)-L-phenylalanine]	
			CN=C(N)NCCC[C@H](N)C(=O)O [L-NMMA, L-N-monomethyl-arginine]	inhibition of the synthesis of NO from L-arginine (NO synthase): can be inhibited; selectivity between constitutive and inducible NO synthase (NO synthase): non-selective
			nitroarginine	selectivity between constitutive and inducible NO synthase (NO synthase): non-selective
